From US12280046B2, “Melanocortin subtype-2 receptor (MC2R) antagonist for the treatment of disease” (Crinetics Pharmaceuticals, Inc., priority 2021, dated 2025)

Columns and labels:
MC3R = biological target: T1, MC3R (Homo sapiens, UniProt P41968); test: Commercially available MC3R membrane binding assay; details: greater than highest concentration tested
T1 construct: purchased
Protocol: The selectivity over other human MCR subtypes was evaluated using commercially available MC1R, MC3R, MC4R, and MCSR membrane binding assays. The half maximal inhibitory concentration in the binding assays (IC50) were determined to be greater than the highest concentration tested, or >10,000 nM, >1000 nM, >10,000 nM and >1000 nM for MC1R, MC3R, MC4R and MCSR, respectively. Compound 1 is >2900-fold selective for MC2R versus the other human MCRs.

sodium channel (site 2) = test: SafetyScreen panel: sodium channel site 2; type: binding; details: 10 μM
Protocol: (§1) Compound 1 was tested at Eurofins Panlabs Discovery Services Taiwan, Ltd. for evaluation in their SafetyScreen™ panel of assays. This included selectivity assays at 87 targets including G-protein coupled receptors, nuclear receptors, other cell surface receptors, ion channels, enzymes, and transporters.

[1] = Single oral dose ACTH challenge test in rats; type: in vivo, rat; details: rat, in vivo, male rats, at minimum effective dose 3 mg/kg oral
Protocol: (§2) The pharmacodynamic (PD) effects of Compound 1 were examined in rat by evaluating suppression of the corticosterone (cortisol in humans) response induced by administration of ACTH.
(§3) The ability of a single oral dose of Compound 1 to suppress corticosterone over 2 hours in response to an ACTH challenge test was assessed in male and female rats. Acute, IV administration of 1 μg/kg ACTH(1-24) induced a robust rise in plasma corticosterone levels compared to baseline in male and female rats.

[2] = test system: ACTH-stimulated corticosterone secretion; test: Single oral dose ACTH challenge test in rats; type: in vivo, rat; details: for suppression of corticosterone: 1 μg/kg IV ACTH(1-24), vs vehicle
Protocol: as §2, §3

[3] = test system: plasma corticosterone in mice with ACTH-secreting AtT-20 cell tumors; test: ACTH-secreting AtT-20 mouse pituitary cell tumor model, 14 days of daily oral dosing; type: in vivo; details: for suppression of plasma corticosterone: 2 hours after last dose, vs vehicle
Protocol: The ability of 14 days of daily oral administration of Compound 1 to suppress corticosterone in a mouse model of ACTH excess was evaluated.
Briefly, female Balb/c nude mice were subcutaneously implanted with AtT-20 corticotroph tumor cells in the rear flank (3 million cells/injection/animal) on Day 0. The no-tumor (NT) control group was injected with media only. When tumors became palpable on Day 21, mice were assigned to groups randomized for body weight, and 0, 15, 30 or 100 mg/kg/day of Compound 1. Compound 1 was orally administered for 14 days (Day 21 to Day 34).

[4] = test system: calcium channel L-type (phenylalkylamine); test: SafetyScreen panel: calcium channel L-type; type: binding; details: 10 μM
Protocol: as §1

[5] = test system: ACTH-stimulated corticosterone; test: Single oral dose with repeated ACTH(1-24) challenges in rats; type: in vivo, rat; details: for suppression of ACTH-stimulated corticosterone: vs vehicle
Protocol: The ability of a single dose of Compound 1 to suppress corticosterone after repeated ACTH(1-24) (1 μg/kg) challenges was evaluated to determine the reproducibility of the ACTH-stimulated corticosterone response and the amount of time required to restore the corticosterone response to vehicle levels.
Compound 1 suppressed ACTH-stimulated corticosterone at 1 hour (44% and 88% with 3 and 30 mg/kg, respectively) and 4 hours (36% and 84% with 3 and 30 mg/kg, respectively) post-oral administration compared to vehicle treatment.

[6] = test system: basal and ACTH-stimulated cortisol; test: Phase 1 SAD study, basal cortisol and ACTH-stimulation test; type: in vivo, human; details: for % suppression in cortisol AUC: high dose ACTH (250 mcg) challenge
Excerpt: This Phase 1, first-in-human, double-blind, randomized, placebo-controlled study will evaluate the safety of Compound 1 in healthy volunteers as well as the relationship between exposure and pharmacodynamic (PD) parameters, including ACTH-stimulated and endogenous cortisol secretion measured in blood, saliva, and urine. Results will be used to inform endpoints and other parameters in future later studies in patients with Cushing's disease (CD) or other diseases of excess adrenocorticotropic hormone (ACTH), including Congenital Adrenal Hyperplasia (CAH) and Ectopic ACTH Syndrome (EAS).
SAD/Part 1: ascending single dose, randomized, placebo-controlled, double-blind; 5 planned and up to 8 total cohorts, n=64. In each cohort, 6 subjects will receive Compound 1, 2 subjects will receive the placebo. Doses will escalate from 10 mg in cohort 1 to no more than 250 mg.
ACTH-stimulation tests are conducted while fasting. For PD analyses, blood samples are collected for measurement of serum cortisol, A4, 17-OHP, aldosterone, and DHEA. A summary of the procedure is as follows: In the “high dose” test, each subject is administered an IV 250 μg dose (for subjects >37 lbs) of cosyntropin (ACTH(1-24)) at the start of each test; in the “low dose” test, 1 mcg is administered instead. At 2 hours after study drug dosing/Time 0 (±5 minutes), collect blood sample. Within 5 minutes, administer cosyntropin IV infusion over 2 minutes. Collect blood sample at Time 30 minutes (5 minutes). Collect blood sample at Time 60 minutes (5 minutes).
Starting on Day −1 until EOS (or ET), fasting pre-dose blood samples are collected <15 minutes prior to dosing (˜0800 hr) for measurement of serum cortisol, A4, 17-OHP, aldosterone, ACTH(1 39), renin, and DHEAS. On Days in which ACTH-stimulation tests are conducted, these tests are done approximately 2 hours post-study drug dosing. Prior to cosyntropin administration, at 2 hours (15 minutes) post-dose, blood samples are collected for measurement of cortisol, A4, 17-OHP, aldosterone, and DHEA. Cosyntropin is then administered to define time 0 of the ACTH-stimulation test. At 2.5 hours (15 minutes) post-dose/30 minutes post-cosyntropin, blood samples are collected for measurement of cortisol. At 3 hours (15 minutes) post-dose/60 minutes post-cosyntropin, blood samples are collected for measurement of cortisol, A4, 17-OHP, aldosterone, and DHEA.
Compound 1 was also evaluated in the context of an ACTH-Stimulation Test, with oral Compound 1 or placebo being administered prior to the intravenous (IV) administration of cosyntropin (ACTH(1-24)). In the absence of pharmacologic intervention, IV administration of ACTH leads to the secretion of cortisol; whereas the pharmacologic intervention can suppress secretion of […] cortisol levels.

[7] = daily oral dosing over the course of the experiment

T1 sequence (P41968 whole entry): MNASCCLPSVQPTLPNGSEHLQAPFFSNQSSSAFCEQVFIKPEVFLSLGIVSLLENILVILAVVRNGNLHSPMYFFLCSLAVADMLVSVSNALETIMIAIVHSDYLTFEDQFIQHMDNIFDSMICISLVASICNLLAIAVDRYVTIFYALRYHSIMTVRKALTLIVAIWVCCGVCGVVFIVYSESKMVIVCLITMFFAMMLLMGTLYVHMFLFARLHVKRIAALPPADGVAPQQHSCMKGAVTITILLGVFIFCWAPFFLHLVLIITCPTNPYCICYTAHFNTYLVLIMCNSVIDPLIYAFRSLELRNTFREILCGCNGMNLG

IC50 (MC3R): > 1 µM | Cmax [1]: 149 ng/mL | AUC(0-t) ([1]; read-out: AUC up to the last measurable concentration (AUC0-t)): 1400 ng·h/mL
Structure (SMILES): CCOc1ccccc1-c1ccc(N2CCN(C(=O)C3(C(F)(F)F)CCC3)C[C@H]2CC)c(C(=O)N[C@@H]2CN3CCC2CC3)n1 [Compound 1, 6-(2-ethoxyphenyl)-3-((R)-2-ethyl-4-(1-(trifluoromethyl)cyclobutane-1-carbonyl)piperazin-1-yl)-N—((S)-quinuclidin-3-yl)picolinamide]
inhibition/activity (sodium channel (site 2)): > 70% | suppression of corticosterone ([2]; female rats, 1 mg/kg oral): 51% | suppression of corticosterone ([2]; female rats, 3 mg/kg oral): 71% | suppression of corticosterone ([2]; female rats, 10 mg/kg oral): 88% | dose with statistically significant suppression of corticosterone ([2]; female rats, oral): ≥ 1 mg/kg | ACTH-stimulated corticosterone secretion ([2]; male and female rats, oral): dose-dependently suppressed | suppression of corticosterone ([2]; male rats, 3 mg/kg oral): 62% | suppression of corticosterone ([2]; male rats, 10 mg/kg oral): 78% | dose with statistically significant suppression of corticosterone ([2]; male rats, oral): ≥ 3 mg/kg | minimum effective dose ([2]; male rats, oral, 1 μg/kg ACTH-stimulated acute assay): 3 mg/kg | suppression of plasma corticosterone ([3]; 15 mg/kg/day): 73% | suppression of plasma corticosterone ([3]; 30 mg/kg/day): 88% | increase in ACTH levels ([3]; 100 mg/kg/day vs vehicle): 2.4 fold | suppression of plasma corticosterone ([3]; 100 mg/kg/day): 92% | body weight [3, 7]: no significant effect | tumor volume [3, 7]: no significant effect | inhibition/activity [4]: > 70% | ACTH-stimulated corticosterone ([5]; 24 and 48 hours after single oral 3 or 30 mg/kg): returned to normal, vehicle levels | suppression of ACTH-stimulated corticosterone ([5]; 1 hour post-oral administration, 3 mg/kg): 44% | suppression of ACTH-stimulated corticosterone ([5]; 1 hour post-oral administration, 30 mg/kg): 88% | suppression of ACTH-stimulated corticosterone ([5]; 4 hours post-oral administration, 3 mg/kg): 36% | suppression of ACTH-stimulated corticosterone ([5]; 4 hours post-oral administration, 30 mg/kg): 84% | % suppression in cortisol AUC ([6]; 10 mg): about 9% | % suppression in cortisol AUC ([6]; 20 mg): about 22% | % suppression in cortisol AUC ([6]; 40 mg): about 36% | acute reduction of basal cortisol ([6]; 80 mg, 2 hours after administration): 56% | % suppression in cortisol AUC ([6]; 80 mg): about 41% | reduction in cortisol levels ([6]; 80 mg, low dose ACTH (1 mcg) stimulation challenge): 48%
